Assay results from patent US6489348B1, “Fungicidal mixtures based on amide compounds and pyridine derivatives” (BASF Aktiengesellschaft, priority 1997, dated 2002).

System: powdery mildew of wheat (Erysiphe graminis forma specialis tritici)
Assay: Activity against powdery mildew of wheat (protective spray test on potted seedlings)
Assay type: in vivo
Conditions: evaluated after 7 days
Experimental: The active ingredients, separately or together, are formulated as 10% emulsion in a mixture of 63% by weight of cyclohexanone and 27% by weight of emulsifier, and diluted with water to the desired concentration.
Evaluation is carried out by determining the infected leaf areas in percent. These percentages are converted into efficacies. The efficacy (W) is calculated as follows using Abbot's formula: […]
α corresponds to the fungal infection of the treated plants in % and β corresponds to the fungal infection of the untreated (control) plants in % An efficacy of 0 means that the infection level of the treated plants corresponds to that of the untreated control plants; an efficacy of 100 means that the treated plants were not infected.
The expected efficacies of the mixtures of the active ingredients were determined using Colby's formula [R. S. Colby, Weeds 15, 20-22 (1967)] and compared with the observed efficacies.
Colby formula: E=x+y −x·y/100
E expected efficacy, expressed in % of the untreated control, when using the mixture of the active ingredients A and B at the concentrations a and b x efficacy, expressed in % of the untreated control, when using active ingredient A at a concentration of a y efficacy, expressed in % of the untreated control, when using active ingredient B at a concentration of b Leaves of potted […] seedlings of the variety “Fruhgold” were sprayed to runoff point with an aqueous formulation of active ingredient prepared from a stock solution consisting of 10% of active ingredient, 63% of cyclohexanone and 27% of emulsifier. 24 hours after the spray coating had dried on, the leaves were dusted with spores of powdery mildew of wheat (Erysiphe graminis forma specialis tritici). The test plants were subsequently kept in a greenhouse at 20-24° C. and 60-90% relative atmospheric humidity. After 7 days, the extent of the mildew development was determined visually in % infection of the total leaf area.

[1] = 16 ppm active ingredient in the spray liquor
[2] = 63 ppm active ingredient in the spray liquor

Compound | Efficacy in % of the untreated control [1] [%] | Efficacy in % of the untreated control [2] [%]
O=C(Nc1ccccc1-c1ccc(F)cc1)c1cccnc1Cl [I.1] | 0 | 0
O=C(Nc1ccccc1-c1ccc(Cl)cc1)c1cccnc1Cl [I.2] | 0 | 0
